# Test results taken from patent US12440493B2, “Combination therapy for treating cancer comprising substituted piperazines” (Eli Lilly and Company, priority 2020, dated 2025).
# Values joined by “and” are separate entries in the source; they are usually repeats but may differ in a detail not shown here. Equal values may be shown once.
# How the values were obtained:
# [1] = test system: IDH1(R132H) primary human AML cells; experiment: AML clearance in peripheral blood (flow cytometry, % hCD33+hCD45+ of total white cells), human AML PDx models in NSG mice; format: in vivo; details: for AML clearance (% hCD33 + hCD45+ (of total white cells)): 1 mg/kg Azacitidine, (QDx5, rest2)X2, 14 days off, each value one animal, 1 mg/kg
# Method: (§1) Compounds and Formulation. For in vivo studies, each test article is prepared at an appropriate concentration with vehicle. […] Compound A is prepared fresh at the appropriate concentrations with vehicle every 7 days and stored at 4° C. between doses. […] Cytarabine is prepared fresh weekly by dilution with sterile saline from stock solution of Cytarabine (injection 20 mg/mL, (Pfizer injectables')). Azacitidine (Sigma, Lot #MKBR7212) is formulated in sterile water and is prepared fresh daily immediately before dosing. In vivo human AML PDx models. […] Two models are used in the studies: […] As needed, splenocytes from tumor-bearing mice are used to propagate and expand the models, as described. Each test article is prepared as described above at an appropriate concentration with vehicle to give animals the doses tested in this study at a dosing volume of 10 μL/gram body weight. Mice receiving Compound A (PO, QD) are treated at the indicated doses for the duration of the study. The combination agents are dosed as follows: […] Treated mice are assessed in comparison to vehicle treated and naïve (non-tumor bearing) control mice. Body weight is recorded twice per week. […] AML PDx model propagation. […] Spleens are processed and splenocytes isolated as described below. Two hundred μL per subject of the splenocyte prep is injected IV (intravenous, tail vein) into recipient NSG mice. […] Once engraftment is confirmed, the mice are monitored biweekly until ready to be put on study. […] Submandibular blood is collected. Spleen/Splenocyte Processing and Prep. After excision, a spleen is weighed, and […] is placed in a standard sterile 15 mL polypropylene conical tube containing PBS, and placed on ice. […] The spleen is placed in ice cold sterile PBS in a 15 mL collection tube. The spleen is removed from the collection tube and placed in a 100 micron 50 mL conical tube cell strainer (BD Falcon #352360). The spleen is processed by gentle rubbing of the spleen tissue against the surface of the cell strainer with the end of a 5 mL syringe plunger in a circular motion. The surface of the strainer is rinsed with 10 mL room temperature sterile DPBS (HyClone SH30028) 3 times during the process. […] The cell pellet is collected by centrifugation (300×g) and washed three times with 30 mL sterile DPBS. The cells are counted and resuspended in DPBS at the desired implant concentration. Bone Marrow Collection. […] Flow cytometry analysis of human white cells. Submandibular blood samples from in vivo studies are collected. Fluor-conjugated antibody stains are added according to the manufacturer's instructions (anti-human CD33-PE (clone WM53, BD Cat #555450), anti-human CD14-APC (clone MφpP9, BD Cat #340436), anti-human CD15-V450 (clone HI98, BD Cat #561584), anti-human CD117-BV421 (clone YB5.B8, BD Cat #562434), anti-human […]7 (clone ICRF44, BD Cat #557754), anti-human […]7 (clone HI30, BD Cat #557748), and anti-human CD3-FITC (clone SK7, BD Cat #340542)). The samples are incubated for 30 minutes at room temperature, protected from light. After the incubation, 1.5 mL 1×BD Lyse/Fix (37° C., (BD #558049)) is added to each sample and incubated for 12 minutes at room temperature. The tubes are centrifuged at 300×g for 7 minutes. BD Lyse/Fix solution is aspirated and the cell pellet washed with stain/wash buffer 3 times (1 wash step consisted of: pellet resuspended in 3 mL stain/wash buffer, centrifuged at 300×g, aspirated wash). Fixed cells are then resuspended in 300 to 400 μL stain/wash buffer. Samples are analyzed on a Becton Dickinson FACSVerse Flow cytometer (Cat #651155 Serial #Z6511550447) using standard flow cytometry principles and techniques. Samples are analyzed on the same day as they are stained and fixed. Population gating and data analysis of percent population are performed in the FACSuite software on the FACSVerse cytometer. Percent population values from the data analysis are plotted in Graphpad Prism or in JMP13. […]
# [2] = test system: IDH1(R132H) primary human AML cells; experiment: AML cell differentiation in blood (flow cytometry, % hCD33+hCD11b+ of hCD45+ cells), human AML PDx models in NSG mice; format: in vivo; details: for AML cell differentiation (% hCD33 + hCD11b+ (of hCD45+ cells)): 1 mg/kg Azacitidine, (QDx5, rest2)X2, 14 days off, each value one animal, 1 mg/kg
# Method: as §1
# [3] = test system: IDH1(R132H) primary human AML cells; experiment: Bone marrow AML clearance (flow cytometry), human AML PDx models in NSG mice; format: in vivo
# Method: as §1
# [4] = test system: 2-HG production; experiment: Plasma 2-HG inhibition (LC-MS metabolite analysis in plasma of AML PDx model); format: in vivo, human
# [5] = 1 mg/kg Azacitidine, (QD × 5, rest 2)x2, 14 days off, each line one animal
# [6] = 1 mg/kg Azacitidine, IP, (QDx5, rest 2)x2 14 days off, each line one animal
smiles,measurement,setting,value
"Nc1ncn([C@@H]2O[C@H](CO)[C@@H](O)[C@H]2O)c(=O)n1 [Azacitidine, reference compound]",AML clearance (% hCD33 + hCD45+ (of total white cells)),[1]; Treatment day 2,23.43% and 20.98% and 19.8% and 15.03% and 22.26% and 10.88% and 16.63%
same,AML clearance (% hCD33 + hCD45+ (of total white cells)),[1]; Treatment day 15,33.19% and 44.55% and 30.95% and 35.67% and 30.39% and 28.23% and 30.75%
same,AML clearance (% hCD33 + hCD45+ (of total white cells)),[1]; Treatment day 28,13.99% and 12.05% and 15.33% and 16.77% and 13.73% and 22.64% and 22.81%
same,AML clearance (% hCD33 + hCD45+ (of total white cells)),[1]; Treatment day 43,32.23% and 23.27% and 18.57% and 27.48% and 11.38% and 25.34% and 20.44%
same,AML clearance (% hCD33 + hCD45+ (of total white cells)),[1]; Treatment day 58,11.92% and 32.12% and 11.16% and 7.63% and 9.47% and 13.4%
same,AML clearance (% hCD33 + hCD45+ (of total white cells)),[1]; Treatment day 77,12.91% and 26.37% and 20.18% and 12.58% and 15.11% and 11.64%
same,AML clearance (% hCD33 + hCD45+ (of total white cells)),[1]; Treatment day 98,62.54% and 70.18% and 65.61% and 37.53% and 38.23%
same,AML clearance (% hCD33 + hCD45+ (of total white cells)),[1]; Treatment day −19,7.65% and 4.33% and 3.14% and 6.28% and 3.24% and 2.46% and 2.87%
same,% peripheral blood AML cells (treatment group value),"[1]; day 43, group G: azacitidine (1 mg/kg), vehicle 71%",22%
same,AML cell differentiation (% hCD33 + hCD11b+ (of hCD45+ cells)),[2]; Treatment day 2,10.07% and 14.27% and 13.08% and 12.37% and 5.55% and 9.38% and 9.55%
same,AML cell differentiation (% hCD33 + hCD11b+ (of hCD45+ cells)),[2]; Treatment day 15,12.12% and 16.08% and 11.64% and 18.36% and 13.75% and 11.72% and 18.15%
same,AML cell differentiation (% hCD33 + hCD11b+ (of hCD45+ cells)),[2]; Treatment day 28,21.14% and 21.62% and 19.07% and 20.9% and 16.95% and 20.64% and 21.18%
same,AML cell differentiation (% hCD33 + hCD11b+ (of hCD45+ cells)),[2]; Treatment day 43,10.64% and 9.94% and 11.58% and 6.98% and 6.67% and 12.03% and 10.48%
same,AML cell differentiation (% hCD33 + hCD11b+ (of hCD45+ cells)),[2]; Treatment day 58,14.45% and 9.99% and 10.78% and 11.33% and 11.72% and 13.55%
same,AML cell differentiation (% hCD33 + hCD11b+ (of hCD45+ cells)),[2]; Treatment day 77,10.12% and 10.78% and 8.78% and 6.76% and 10.92% and 11.76%
same,AML cell differentiation (% hCD33 + hCD11b+ (of hCD45+ cells)),[2]; Treatment day 98,10.31% and 14.59% and 17.5% and 8.29% and 16.64%
same,AML cell differentiation (% hCD33 + hCD11b+ (of hCD45+ cells)),[2]; Treatment day −19,1.53% and 0% (2×) and 2.59% and 0.27% and 2.72% and 1.16%
same,% AML cell differentiation (treatment group value),"[2]; day 43, group G: azacitidine (1 mg/kg), vehicle 15%",10%
same,Bone Marrow AML Clearance: % hCD33 + hCD45+ (% of white cells),[3]; [5],49.81% and 60.61% and 72.4% and 43.12%
same,Bone Marrow AML Clearance: % hCD45+ (% of white cells),[3]; [5],49.85% and 61% and 72.52% and 43.15%
same,% human AML cells in bone marrow (of white cells; lower = more clearance),"[3]; group G: azacitidine (1 mg/kg), vehicle 94%",55%
same,% Inhibition of 2-HG (plasma),[4]; [6],32.923% and 22.691% and 56.872% and 51.81% and 75.405% and 73.207% and 49.201%
same,Naive Subtracted 2-HG (plasma),[4]; [6],4.603 µM and 5.305 µM and 2.959 µM and 3.307 µM and 1.688 µM and 1.838 µM and 3.486 µM
same,Plasma 2-HG,[4]; [6],7.539 µM and 8.241 µM and 5.896 µM and 6.243 µM and 4.624 µM and 4.775 µM and 6.422 µM
same,% plasma 2-HG (treatment group value),"[4]; group G: azacitidine (1 mg/kg), vehicle 100%",48%
